Source: ChEMBL document CHEMBL3885881, “DrugMatrix”

Species on record: Rattus norvegicus
Assay: DrugMatrix - Regimen: Daily Repeat
Format: toxicity, organism-based, Sprague-Dawley
Set-up: regimen Daily Repeat, gender Male, age 6-8 weeks
Settings: in vivo, sc, route subcutaneous, […]; for ABSOLUTE BASOPHIL / ABSOLUTE EOSINOPHIL / ABSOLUTE LYMPHOCYTE / ABSOLUTE MONOCYTE / ABSOLUTE SEGMENTED NEUTROPHIL / BASOPHIL / EOSINOPHIL / ERYTHROCYTE COUNT / HEMATOCRIT / HEMOGLOBIN / LEUKOCYTE COUNT / LYMPHOCYTE / MEAN CORPUSCULAR HEMOGLOBIN / MEAN CORPUSCULAR HEMOGLOBIN CONCENTRATION / MEAN CORPUSCULAR VOLUME / MONOCYTE / NEUTROPHIL / NUCLEATED RED BLOOD CELLS / PLATELET COUNT: tissue Blood; for ALANINE AMINOTRANSFERASE / ALBUMIN / ALKALINE PHOSPHATASE / ASPARTATE AMINOTRANSFERASE / BLOOD UREA NITROGEN / CARBON DIOXIDE / CHLORIDE / CHOLESTEROL / CREATINE PHOSPHOKINASE / CREATININE / GLUCOSE / LACTATE DEHYDROGENASE / LIPASE / PHOSPHORUS / POTASSIUM / SODIUM / TOTAL BILIRUBIN / TOTAL PROTEIN / URIC ACID: tissue Plasma
[1] = 18 mg/kg, 120 h, dose level High, time 5 day
[2] = 72 h, dose 1.8 mg/Kg, dose level Low, time 3 day
[3] = 120 h, dose 1.8 mg/Kg, dose level Low, time 5 day

CN(C)c1ccc(C(=C2C=CC(=[N+](C)C)C=C2)c2ccc(N(C)C)cc2)cc1.[Cl-] [GENTIAN VIOLET]
ABSOLUTE BASOPHIL [1]: 0 CELLS/uL
ABSOLUTE EOSINOPHIL [1]: 0 CELLS/uL
ABSOLUTE LYMPHOCYTE [1]: 15601 CELLS/uL
ABSOLUTE MONOCYTE [1]: 1849 CELLS/uL
ABSOLUTE SEGMENTED NEUTROPHIL [1]: 7750 CELLS/uL
BASOPHIL [1]: 0%
EOSINOPHIL [1]: 0%
ERYTHROCYTE COUNT [1]: 5.48 x10E6/uL
HEMATOCRIT [1]: 32.93%
HEMOGLOBIN [1]: 12.37 G/DL
LEUKOCYTE COUNT [1]: 25.2 x10E3/uL
LYMPHOCYTE [1]: 61.67%
MEAN CORPUSCULAR HEMOGLOBIN [1]: 22.57 pg
MEAN CORPUSCULAR HEMOGLOBIN CONCENTRATION [1]: 37.57 G/DL
MEAN CORPUSCULAR VOLUME [1]: 60.17 fL
MONOCYTE [1]: 7.33%
NEUTROPHIL [1]: 31%
NUCLEATED RED BLOOD CELLS [1]: 0 /100WBC
PLATELET COUNT [1]: 1331.67 x10E3/uL
ALANINE AMINOTRANSFERASE [1]: 49 u/L
ALBUMIN [1]: 3.03 G/DL
ALKALINE PHOSPHATASE [1]: 294.67 u/L
ASPARTATE AMINOTRANSFERASE [1]: 116 u/L
BLOOD UREA NITROGEN [1]: 16.33 mg/dL
CARBON DIOXIDE [1]: 30.67 mmol/L
CHLORIDE [1]: 100 MEQ/L
CHOLESTEROL [1]: 62.33 mg/dL
CREATINE PHOSPHOKINASE [1]: 196.33 u/L
CREATININE [1]: 0.16 mg/dL
GLUCOSE [1]: 141.33 mg/dL
LACTATE DEHYDROGENASE [1]: 146.33 u/L
LIPASE [1]: 8 u/L
PHOSPHORUS [1]: 11.3 mg/dL
POTASSIUM [1]: 6.88 MEQ/L
SODIUM [1]: 143.85 MEQ/L
TOTAL BILIRUBIN [1]: 0.13 mg/dL
TOTAL PROTEIN [1]: 5.57 G/DL
URIC ACID [1]: 1.37 mg/dL
ABSOLUTE BASOPHIL [2]: 0 CELLS/uL
ABSOLUTE EOSINOPHIL [2]: 115.33 CELLS/uL
ABSOLUTE LYMPHOCYTE [2]: 15675.67 CELLS/uL
ABSOLUTE MONOCYTE [2]: 309.33 CELLS/uL
ABSOLUTE SEGMENTED NEUTROPHIL [2]: 2499.67 CELLS/uL
BASOPHIL [2]: 0%
EOSINOPHIL [2]: 0.67%
ERYTHROCYTE COUNT [2]: 5.43 x10E6/uL
HEMATOCRIT [2]: 34.87%
HEMOGLOBIN [2]: 12.97 G/DL
LEUKOCYTE COUNT [2]: 18.6 x10E3/uL
LYMPHOCYTE [2]: 84.33%
MEAN CORPUSCULAR HEMOGLOBIN [2]: 23.9 pg
MEAN CORPUSCULAR HEMOGLOBIN CONCENTRATION [2]: 37.2 G/DL
MEAN CORPUSCULAR VOLUME [2]: 64.3 fL
MONOCYTE [2]: 1.67%
NEUTROPHIL [2]: 13.33%
NUCLEATED RED BLOOD CELLS [2]: 0 /100WBC
PLATELET COUNT [2]: 1276.67 x10E3/uL
ALANINE AMINOTRANSFERASE [2]: 46 u/L
ALBUMIN [2]: 3.93 G/DL
ALKALINE PHOSPHATASE [2]: 341 u/L
ASPARTATE AMINOTRANSFERASE [2]: 77.33 u/L
BLOOD UREA NITROGEN [2]: 15 mg/dL
CARBON DIOXIDE [2]: 26.67 mmol/L
CHLORIDE [2]: 102 MEQ/L
CHOLESTEROL [2]: 86.67 mg/dL
CREATINE PHOSPHOKINASE [2]: 247 u/L
CREATININE [2]: 0.19 mg/dL
GLUCOSE [2]: 138.67 mg/dL
LACTATE DEHYDROGENASE [2]: 298.33 u/L
LIPASE [2]: 9.33 u/L
PHOSPHORUS [2]: 11.5 mg/dL
POTASSIUM [2]: 6.51 MEQ/L
SODIUM [2]: 144.73 MEQ/L
TOTAL BILIRUBIN [2]: 0.23 mg/dL
TOTAL PROTEIN [2]: 5.73 G/DL
URIC ACID [2]: 1.4 mg/dL
ABSOLUTE BASOPHIL [3]: 0 CELLS/uL
ABSOLUTE EOSINOPHIL [3]: 0 CELLS/uL
ABSOLUTE LYMPHOCYTE [3]: 17006.67 CELLS/uL
ABSOLUTE MONOCYTE [3]: 546.67 CELLS/uL
ABSOLUTE SEGMENTED NEUTROPHIL [3]: 2113.33 CELLS/uL
BASOPHIL [3]: 0%
EOSINOPHIL [3]: 0%
ERYTHROCYTE COUNT [3]: 5.57 x10E6/uL
HEMATOCRIT [3]: 34.4%
HEMOGLOBIN [3]: 12.93 G/DL
LEUKOCYTE COUNT [3]: 19.67 x10E3/uL
LYMPHOCYTE [3]: 86%
MEAN CORPUSCULAR HEMOGLOBIN [3]: 23.2 pg
MEAN CORPUSCULAR HEMOGLOBIN CONCENTRATION [3]: 37.6 G/DL
MEAN CORPUSCULAR VOLUME [3]: 61.77 fL
MONOCYTE [3]: 2.67%
NEUTROPHIL [3]: 11.33%
NUCLEATED RED BLOOD CELLS [3]: 0 /100WBC
PLATELET COUNT [3]: 1503 x10E3/uL
ALANINE AMINOTRANSFERASE [3]: 51 u/L
ALBUMIN [3]: 3.47 G/DL
ALKALINE PHOSPHATASE [3]: 278 u/L
ASPARTATE AMINOTRANSFERASE [3]: 83.67 u/L
BLOOD UREA NITROGEN [3]: 19 mg/dL
CARBON DIOXIDE [3]: 27.33 mmol/L
CHLORIDE [3]: 105 MEQ/L
CHOLESTEROL [3]: 73.33 mg/dL
CREATINE PHOSPHOKINASE [3]: 310 u/L
CREATININE [3]: 0.35 mg/dL
GLUCOSE [3]: 162 mg/dL
LACTATE DEHYDROGENASE [3]: 102.67 u/L
LIPASE [3]: 9.67 u/L
PHOSPHORUS [3]: 11.3 mg/dL
POTASSIUM [3]: 6.63 MEQ/L
SODIUM [3]: 144.03 MEQ/L
TOTAL BILIRUBIN [3]: 0.13 mg/dL
TOTAL PROTEIN [3]: 5.8 G/DL
URIC ACID [3]: 1.63 mg/dL
